Measured values reported in patent US8906825B2, “Herbicidal compositions comprising 4-amino-3-chloro-5-fluoro-6-(4-chloro-2-fluoro-3-methoxyphenyl) pyridine-2-carboxylic acid or a derivative thereof and triazolopyrimidine sulfonamides” (Dow AgroSciences LLC, priority 2012, dated 2014).

What was measured:
Assay in all cases: Postemergence foliar-applied herbicidal mixtures, cereal crops, greenhouse (Example III)
Format in all cases: in vivo
[1] = test system: MATCH (Chamomilla chamomilla (L.) Rydb., scented mayweed); conditions: Florasulam 3.75 gai/ha, visual score 0 to 100 percent after 20-22 days
Description: (§1) Seeds of the desired test plant species were planted in Sun Gro MetroMix® 306 planting mixture, which typically has a pH of 6.0 to 6.8 and an organic matter content of about 30 percent, in plastic pots with a surface area of 103.2 square centimeters (cm^2). […] The plants were grown for 7-36 days in a greenhouse with an approximate 14 hour photoperiod which was maintained at about 18° C. during the day and about 17° C. during the night. Nutrients and water were added on a regular basis and supplemental lighting was provided with overhead metal halide 1000-Watt lamps as necessary. The plants were employed for testing when they reached the second or third true leaf stage.
(§2) Treatments consisted of the benzyl ester of 4-amino-3-chloro-5-fluoro-6-(4-chloro-2-fluoro-3-methoxy-phenyl)pyridine-2-carboxylic acid (Compound A), formulated as an SC, a second cereal herbicide alone and then both in combination.
(§3) Other herbicidal components were applied on an active ingredient basis and included acetolactate synthase (ALS)-inhibiting herbicides (sulfonamide chemical class) florasulam formulated as Derby® and pyroxsulam formulated as PowerFlex®. A measured aliquot of benzyl ester of 4-amino-3-chloro-5-fluoro-6-(4-chloro-2-fluoro-3-methoxy-phenyl)pyridine-2-carboxylic acid (Compound A) was placed in 25 milliliter (mL) glass vials and diluted in a volume of 1.25% (v/v) AgriDex® crop oil concentrated to obtain a stock solution. Compound requirements are based upon a 12 mL application volume at a rate of 187 liters per hectare (L/ha). […] Formulated compounds were applied to the plant material with an overhead Mandel track sprayer equipped with an 8002E nozzle calibrated to deliver 187 L/ha over an application area of 0.503 square meters (m^2) at a spray height of 18 inches (46 cm) above average plant canopy. Control plants were sprayed in the same manner with the solvent blank.
(§4) The treated plants and control plants were placed in a greenhouse as described above and watered by sub-irrigation to prevent wash-off of the test compounds. After 20-22 days, the condition of the test plants as compared with that of the control plants was determined visually and scored on a scale of 0 to 100 percent where 0 corresponds to no injury and 100 corresponds to complete kill.
(§5) Colby's equation was used to determine the herbicidal effects expected from the mixtures (Colby, S. R. 1967. Calculation of the synergistic and antagonistic response of herbicide combinations. Weeds 15:20-22.).
(§6) The following equation was used to calculate the expected activity of mixtures containing two active ingredients, A and B: Expected=A+B−(A×B/100)

[2] = test system: SASKR (Salsola iberica (L.), Russian thistle); conditions: Florasulam 3.75 gai/ha, visual score 0 to 100 percent after 20-22 days
Description: as §1, §2, §3, §4, §5, §6

[3] = test system: VERPE (Veronica persica Poir., bird's-eye speedwell); conditions: visual score 0 to 100 percent after 20-22 days
Description: as §1, §2, §3, §4, §5, §6

[4] = test system: VIOTR (Viola tricolor (L.), wild pansy); conditions: Florasulam 3.75 gai/ha, visual score 0 to 100 percent after 20-22 days
Description: as §1, §2, §3, §4, §5, §6

[5] = test system: LAMPU (Lamium purpureum (L.), purple deadnettle); conditions: Florasulam 1.25 gai/ha, visual score 0 to 100 percent after 20-22 days
Description: as §1, §2, §3, §4, §5, §6

[6] = test system: CIRAR (Cirsium arvense (L.) Scop., Canada thistle); conditions: visual score 0 to 100 percent after 20-22 days
Description: as §1, §2, §3, §4, §5, §6

COc1ncc(F)c2nc(S(=O)(=O)Nc3c(F)cccc3F)nn12 [Florasulam, N-(2,6-difluorophenyl)-8-fluoro-5-methoxy[1,2,4]triazolo[1,5-c]pyrimidine-2-sulfonamide, reference compound]
MATCH Obs [1]: 65%
SASKR Obs [2]: 30%
VERPE Obs ([3]; Florasulam 1.25 gai/ha): 10%
VERPE Obs ([3]; Florasulam 3.75 gai/ha): 10%
VIOTR Obs [4]: 65%
LAMPU Obs [5]: 10%
CIRAR Obs ([6]; Florasulam 1.25 gai/ha): 55%
CIRAR Obs ([6]; Florasulam 3.75 gai/ha): 40%
